Laboratory results as given in patent US12091398B2, “PD-L1 antagonist compound” (ADLAI NORTYE BIOPHARMA CO., LTD., priority 2019, dated 2024).

Each molecule was assayed on PD-1/PD-L1 interaction (assay: Cell based PD-1/PD-L1 NFAT reporter assay). Details: Homo sapiens, 6 h, PD-1/NFAT-Reporter-Jurkat cells co-cultured with TCR activator/PD-L1-CHO cells; 6 hour incubation; luciferase; calibrated to Atezolizumab 10 nM; read-out: Absolute EC50.
Design: species or system human
Experimental: Cell Based PD-1/PD-L1 NFAT Reporter Assay
Compounds of the present patent were tested in a cell based PD-1/PD-L1 NFAT reporter assay.
The cell-based luciferase reporter assay is used for monitoring the PD-1/PD-L1 inhibitor by characterizing the biological activity of PD-1: PD-L1 interactions in cellular context. PD-1/NFAT-Reporter-Jurkat cells stably over-expressing human PD-1 with NFAT reporter are used as effector cells. TCR activator/PD-L1—CHO cells over-expressing PD-L1 and an engineered T cell receptor (TCR) activator are used as target cells. When these two cells are co-cultivated, TCR complexes on effector cells are activated by TCR activator on target cells, resulting in expression of the NFAT luciferase reporter. However, PD1 and PD-L1 (or PD-L2) ligation prevents TCR activation and suppresses the NFAT-responsive luciferase activity. This inhibition can be specifically reversed by anti-PD1 or anti-PD-L1 inhibitors. PD1/PD-L1 inhibitors block PD1:PD-L1 interaction and promote TCR activation, resulting in reactivation of the NFAT responsive luciferase reporter.
PD-1/NFAT—Reporter—Jurkat cell (Cat: 60535) and TCR activator/PD-L1—CHO cell (Cat: 60536) were purchased from BPS Bioscience. Anti-human PD-L1 antibody (Atezolizumab, Cat: A2004) was purchased from Selleck; luciferase reporter gene expression detection kit (ONE-Glo™ Luciferase Assay System, Cat: E6120) was purchased from Promega; multifunction plate reader (SpectraMax i3x) was purchased from Molecular Devices.
PD-1/NFAT—Reporter—Jurkat cells and TCR activator/PD-L1—CHO cells were cultured in recommended media respectively.
Harvest TCR activator/PD-L1-CHO cells from culture and seed cells at a density of 35,000 cells per well into 96-well microplate in 100 µl of growth medium. Incubate cells at 37° C. in a CO2 incubator overnight. Next day, discard the culture media, add diluted compound in assay medium for 30 min. Anti-PD-L1 antibody (Atezolizumab, final concentration 10 nM) and 0.1% DMSO were the positive and negative control, respectively. Harvest the PD-1/NFAT-reporter-Jurkat cells by centrifugation and add to the wells. After 6 hour incubation, perform luciferase assay using the ONE-Glo™ Luciferase Assay System, following the manufacturer's assay protocol.
Anti-PD-L1 antibody (Atezolizumnab, 10 nM) was used as positive control to calibrate the inhibition rate using the following equation: % inhibition=(Sample luminescence/Average vehicle group luminescence−1)/(Average PD-L1 group luminescence/Average vehicle group luminescence−1)×100%.

Row | EC50 [nM] | Structure (SMILES)
1 | 53 | Cc1c(COc2cc(OCc3cncc(C#N)c3)c(CN[C@@H](CO)C(=O)O)cc2Cl)cccc1-c1cccc2c1cnn2Cc1cc(OCc2cncc(C#N)c2)c(CN[C@@H](CO)C(=O)O)cc1Cl [Compound 57, (4-((3-(1-(4-((((S)-1-carboxy-2-hydroxyethyl)amino)methyl)-2-chloro-5-((5-cyanopyridin-3-yl)methoxy)benzyl)-1H-indazol-4-yl)-2-methylbenzyl)oxy)-5-chloro-2-((5-cyanopyridin-3-yl)methoxy)benzyl)-L-serine]
2 | > 10000 | CN1CCC2(CC1)CCN(C(=O)c1cccc(-c3cccc4c3cnn4Cc3cc(OCc4cncc(C#N)c4)c(CN[C@@H](CO)C(=O)O)cc3Cl)c1Cl)CC2 [Compound 95, (5-chloro-4-((4-(2-chloro-3-(9-methyl-3,9-diazaspiro[5.5]undecane-3-carbonyl)phenyl)-1H-indazol-1-yl)methyl)-2-((5-cyanopyridin-3-yl)methoxy)benzyl)-L-serine]
3 | 289 | CC(CO)(NCc1cc(Cl)c(OCc2cccc(-c3cccc4c3cnn4CCCCN3CC[C@@H](O)C3)c2Br)cc1OCc1cncc(C#N)c1)C(=O)O (stereo partly shown) [Compound 12]
4 | > 1100 | N#Cc1cncc(COc2cc(OCc3cccc(-c4cccc5c4cnn5CCCCN4CC[C@@H](O)C4)c3N)c(Cl)cc2CN[C@@H](CO)C(=O)O)c1 [Compound 29]
5 | 416 | COc1cc(Cn2nnc3c(-c4cccc(-c5ccc(CNC[C@@H]6CCC(=O)N6)cc5)c4Cl)cccc32)c(Cl)cc1CN[C@@H](CO)C(=O)O [Compound 92, (5-chloro-4-((4-(2-chloro-4′-(((((S)-5-oxopyrrolidin-2-yl)methyl)amino)methyl)-[1,1′-biphenyl]-3-yl)-1H-benzo[d][1,2,3]triazol-1-yl)methyl)-2-methoxybenzyl)-L-serine]
6 | 2340 | N#CCCCCOc1cc(OCc2cccc(-c3cccc4c3cnn4CCCCN3CC[C@@H](O)C3)c2Br)c(Cl)cc1CN[C@@H](CO)C(=O)O [Compound 36]
7 | 1850 | CC(CO)(CO)NCc1cc(Cl)c(Cn2ncc3c(-c4cccc5c4cnn5CCCN4CC[C@@H](O)C4)cccc32)cc1OCc1cncc(C#N)c1 [Compound 60, (R)-5-((4-chloro-2-(((1,3-dihydroxy-2-methylpropan-2-yl)amino)methyl)-5-((1′-(3-(3-hydroxypyrrolidin-1-yl)propyl)-1H,1′H-[4,4′-biindazol]-1-yl)methyl)phenoxy)methyl)nicotinonitrile]
8 | 2130 | COc1cc(Cn2cnc3c(-c4cccc(-c5ccc(CNC[C@@H]6CCC(=O)N6)cc5)c4Cl)cccc32)c(Cl)cc1CN[C@@H](CO)C(=O)O [Compound 93, (5-chloro-4-((4-(2-chloro-4′-(((((S)-5-oxopyrrolidin-2-yl)methyl)amino)methyl)-[1,1′-biphenyl]-3-yl)-1H-benzo[d]imidazol-1-yl)methyl)-2-methoxybenzyl)-L-serine]
9 | 448 | COc1cc(OCc2cccc(-c3cccc4c3cnn4Cc3cc(OCc4cncc(C#N)c4)c(CN)cc3Cl)c2C)c(Cl)cc1CN[C@@H](CO)C(=O)O [Compound 73]

Continued, molecule first:

Row | Structure (SMILES) | EC50 [nM]
10 | Cc1c(COc2cc(OCc3cncc(C#N)c3)c(CN[C@@H](CO)C(=O)O)cc2Cl)cccc1-c1cccc2c1cnn2CCCCN1CC[C@@H](O)C1 [Compound 27] | 643
11 | Cn1cc(COc2cc(OCc3cccc(-c4cccc5c4cnn5CCCCN4CC[C@@H](O)C4)c3Br)c(Cl)cc2CN[C@@H](CO)C(=O)O)cn1 [Compound 42] | > 10000
12 | N#Cc1cncc(COc2cc(OCc3cccc(-c4cccc5c4cnn5CCCCN4CC[C@@H](O)C4)c3[N+](=O)[O-])c(Cl)cc2CN[C@@H](CO)C(=O)O)c1 [Compound 28] | 726
13 | N#Cc1cncc(COc2cc(Cn3ncc4c(-c5cccc(-c6ccc(CNC[C@@H]7CCC(=O)N7)cc6)c5Cl)cccc43)c(Cl)cc2CN[C@@H](CO)C(=O)O)c1 [Compound 77] | 28
14 | COCCNC(=O)COc1cc(OCc2cccc(-c3cccc4c3cnn4CCCCN3CC[C@@H](O)C3)c2Br)c(Cl)cc1CN[C@@H](CO)C(=O)O [Compound 53] | > 10000
15 | C[C@@](CO)(NCc1cc(Cl)c(OCc2cccc(-c3cccc4c3cnn4CCCN3CC[C@@H](O)C3)c2Br)cc1OCc1cncc(C#N)c1)C(=O)O [Compound 18] | 235
16 | N#Cc1cncc(COc2cc(OCc3cccc(-c4cccc5c4cnn5CCCCN4CC[C@@H](O)C4)c3Br)c(Cl)cc2CN2CC[C@@H](O)C2)c1 [Compound 82] | 339
17 | CN(C)CCNC(=O)COc1cc(OCc2cccc(-c3cccc4c3cnn4CCCCN3CC[C@@H](O)C3)c2Br)c(Cl)cc1CN[C@@H](CO)C(=O)O [Compound 52] | > 10000
18 | N#Cc1cncc(COc2cc(OCc3cccc(-c4cccc5c4cnn5Cc4ccc(CN[C@@H](CO)C(=O)O)cc4)c3Br)c(Cl)cc2CN[C@@H](CO)C(=O)O)c1 [Compound 58, (4-((4-(2-bromo-3-((4-((((S)-1-carboxy-2-hydroxyethyl)amino)methyl)-2-chloro-5-((5-cyanopyridin-3-yl)methoxy)phenoxy)methyl)phenyl)-1H-indazol-1-yl)methyl)benzyl)-L-serine] | 1710
19 | N#Cc1cncc(COc2cc(OCc3cccc(-c4cccc5c4cnn5CCCN4CC[C@@H](O)C4)c3C3CC3)c(Cl)cc2CN[C@@H](CO)C(=O)O)c1 [Compound 24] | > 10000
20 | N#Cc1cncc(COc2cc(OCc3cccc(-c4cccc5c4cnn5CCCCCN4CC[C@@H](O)C4)c3Br)c(Cl)cc2CN[C@@H](CO)C(=O)O)c1 [Compound 9] | 367
21 | N#Cc1cncc(COc2cc(OCc3cccc(-c4cccc5c4cnn5CCCCN4CC[C@@H](O)C4)c3Br)c(Cl)cc2CN2CCCC2)c1 [Compound 85] | > 370
22 | COc1cc(OCc2cccc(-c3cccc4c3cnn4Cc3cc(OCc4cncc(C#N)c4)c(CN4CCC(C)(C(=O)O)C4)cc3Cl)c2C)c(Cl)cc1CN1CCC(C)(C(=O)O)C1 (stereo not shown) [Compound 70, 1-(4-((3-(1-(4-((3-carboxy-3-methylpyrrolidin-1-yl)methyl)-2-chloro-5-((5-cyanopyridin-3-yl)methoxy)benzyl)-1H-indazol-4-yl)-2-methylbenzyl)oxy)-5-chloro-2-methoxybenzyl)-3-methylpyrrolidine-3-carboxylic acid] | 5850
23 | N#Cc1cncc(COc2cc(OCc3cccc(-c4cccc5c4cnn5CCCCN4CCC[C@H]4C(=O)O)c3Br)c(Cl)cc2CN[C@@H](CO)C(=O)O)c1 [Compound 23] | 608
24 | N#Cc1cncc(COc2cc(OCc3cccc(-c4cccc5c4cnn5CCCNC[C@@H]4CCC(=O)N4)c3Br)c(Cl)cc2CN[C@@H](CO)C(=O)O)c1 [Compound 87, (4-((2-bromo-3-(1-(3-((((S)-5-oxopyrrolidin-2-yl)methyl)amino)propyl)-1H-indazol-4-yl)benzyl)oxy)-5-chloro-2-((5-cyanopyridin-3-yl)methoxy)benzyl)-L-serine] | 98
25 | COc1cncc(COc2cc(OCc3cccc(-c4cccc5c4cnn5CCCCN4CC[C@@H](O)C4)c3Br)c(Cl)cc2CN[C@@H](CO)C(=O)O)c1 [Compound 40] | > 10000
26 | COc1cc(Cn2ncc3c(-c4cccc(COc5cc(OCc6cncc(C#N)c6)c(CN[C@@H](CO)C(=O)O)cc5Cl)c4C)cccc32)c(Cl)cc1CN[C@@H](CO)C(=O)O [Compound 67, (4-((4-(3-((4-((((S)-1-carboxy-2-hydroxyethyl)amino)methyl)-2-chloro-5-((5-cyanopyridin-3-yl)methoxy)phenoxy)methyl)-2-methylphenyl)-1H-indazol-1-yl)methyl)-5-chloro-2-methoxybenzyl)-L-serine] | 89
27 | C[C@H](CO)NCc1cc(Cl)c(OCc2cccc(-c3cccc4c3cnn4CCCCN3CC[C@@H](O)C3)c2Br)cc1OCc1cncc(C#N)c1 [Compound 81] | 221
28 | COc1cc(OCc2cccc(-c3cccc4c3cnn4Cc3cc(OCc4cncc(C#N)c4)c(CN)cc3Cl)c2C)c(Cl)cc1CN [Compound 72] | > 1110

Same assay, conditions: PD-1/NFAT-Reporter-Jurkat cells co-cultured with TCR activator/PD-L1-CHO cells; 6 hour incubation; luciferase; calibrated to Atezolizumab 10 nM; read-out: Absolute EC50

Row | EC50 [nM] | Structure (SMILES)
29 | 1160 | N#Cc1cncc(COc2cc(OCc3cccc(-c4cccc5c4cnn5CCCCN4CC[C@@H](O)C4)c3Br)c(Cl)cc2CN[C@@H](CO)C(=O)O)c1 [Compound 8]
30 | 310 | N#Cc1cncc(COc2cc(OCc3cccc(-c4cccc5c4cnn5CCCN4CC[C@@H](O)C4)c3Br)c(Cl)cc2CN[C@@H](CO)C(=O)O)c1 [Compound 2]
31 | 876 | N#Cc1cncc(COc2cc(OCc3cccc(-c4cccc5c4cnn5CC4CCC(N5CC[C@@H](O)C5)CC4)c3Br)c(Cl)cc2CN[C@@H](CO)C(=O)O)c1 (stereo partly shown) [Compound 20]
